Data as given in US7816555B2, “Peroxycarboxylic acid compositions with reduced odor” (Ecolab Inc., priority 2003, dated 2010).

Experiment: pH of the mixtures
Assay type: physicochemical
Settings: mixture at the stated moles of POAA, AA and AO-8
Protocol: Octyldimethylamine oxide was added to a peracid composition containing 15% peroxyacetic acid, 10% hydrogen peroxide, and about 40-45% acetic acid. The octyldimethylamine oxide was added at different levels, corresponding to differing molar ratios of peroxyacetic acid (POAA) to acetic acid (AA) to octyldimethylamine oxide (AO-8). The mixture was then compared for remaining odor. […] It was surprising that this reduction occurred even at pH too low for ion pair formation between the AO-8 and POAA, i.e. substantially below the 8.2 pKa of POAA.

mixture results: pH: 7.7
Structure (SMILES): CCCCCCCC[N+](C)(C)[O-] [AO-8, octyldimethylamine oxide]
